The target of experiment [1] is T1, MarR (Escherichia coli, UniProt P27245). As to conditions: salicylate at millimolar concentrations; cited from earlier work.
The target in experiment [2] is T1, MarR. As to conditions: salicylate at millimolar concentrations; cited from earlier work. The source holds these as a separate data set.
Experiment [3] addresses MarR (wild type, Escherichia coli), one subunit of the MarR homodimer (E. coli). The experiment is described as follows: X-ray crystal structure, MarR-salicylate co-crystal.

T1 sequence (P27245 whole entry): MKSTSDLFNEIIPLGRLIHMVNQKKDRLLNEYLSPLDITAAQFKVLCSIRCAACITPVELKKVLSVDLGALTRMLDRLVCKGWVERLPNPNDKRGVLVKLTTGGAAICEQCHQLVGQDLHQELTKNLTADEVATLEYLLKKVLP

As for `O=C([O-])c1ccccc1O.[Na+]` [sodium salicylate], the “MarR activity in whole cells” value in experiment [1] was “inhibit MarR activity”. Further, the “MarR activity in vitro” value in experiment [2] was “inhibit MarR activity”.
Consider “MarR (wild type, Escherichia coli), one subunit of the MarR homodimer”, for which, in experiment [3], the buried surface area (N-/C-terminal hydrophobic core) came to 3570 Å^2 and the total buried surface area for the whole dimer was found to be 3700 Å^2.

Source of the values: US7075582B2, “Methods for identifying and using MarR family polypeptide binding compounds” (Paratek Pharmaceuticals, Inc., priority 2001, dated 2006).
